We go through 35 compounds from ChEMBL document CHEMBL3826933, “Discovery of 7-(Prolinol-N-yl)-2-phenylamino-thiazolo[5,4-d]pyrimidines as Novel Non-Nucleoside Partial Agonists for the A2A Adenosine Receptor: Prediction from Molecular Modeling” (J Med Chem, 2016).

Data set [1] concerns the target T1, Adenosine receptor A1 (Homo sapiens, UniProt P30542).
T1 sequence (P30542 whole entry): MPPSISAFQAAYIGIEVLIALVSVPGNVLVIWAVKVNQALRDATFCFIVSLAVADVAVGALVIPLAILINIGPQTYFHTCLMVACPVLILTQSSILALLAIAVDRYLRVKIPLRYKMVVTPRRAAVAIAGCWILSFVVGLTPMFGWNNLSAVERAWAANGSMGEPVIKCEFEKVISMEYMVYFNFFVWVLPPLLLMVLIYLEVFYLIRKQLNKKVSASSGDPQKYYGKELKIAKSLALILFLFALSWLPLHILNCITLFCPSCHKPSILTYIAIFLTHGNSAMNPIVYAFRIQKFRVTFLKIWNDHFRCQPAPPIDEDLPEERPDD
Briefly: Displacement of [3H]CCPA from recombinant human adenosine A1 receptor expressed in CHO cell membrane after 3 hrs by microbeta scintillation counting method. In kind it is cell membranes.

The target of data set [2] is T2, Adenosine receptor A2a (Homo sapiens, UniProt P29274). Briefly: Displacement of [3H]NECA from recombinant human adenosine A2A receptor expressed in CHO cell membrane after 3 hrs by microbeta scintillation counting method. In kind it is cell membranes. For orientation: In a radioligand displacement assay an active substance lowers the binding of a labelled ligand.
T2 sequence (P29274 whole entry): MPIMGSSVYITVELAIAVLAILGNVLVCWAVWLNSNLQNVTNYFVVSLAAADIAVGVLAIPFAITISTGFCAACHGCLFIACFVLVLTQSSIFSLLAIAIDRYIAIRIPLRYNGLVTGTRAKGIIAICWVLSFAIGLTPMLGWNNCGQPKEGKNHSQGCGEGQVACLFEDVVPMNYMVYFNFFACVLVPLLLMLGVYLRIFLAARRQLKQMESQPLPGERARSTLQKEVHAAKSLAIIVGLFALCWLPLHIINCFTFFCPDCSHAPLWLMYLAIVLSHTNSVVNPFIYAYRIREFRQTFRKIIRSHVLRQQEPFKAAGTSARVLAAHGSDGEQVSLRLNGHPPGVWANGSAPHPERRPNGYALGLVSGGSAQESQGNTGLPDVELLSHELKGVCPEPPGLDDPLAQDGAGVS

For data set [3], the target named is T3, Adenosine receptor A2b (Homo sapiens, UniProt P29275).
T3 sequence (P29275 whole entry): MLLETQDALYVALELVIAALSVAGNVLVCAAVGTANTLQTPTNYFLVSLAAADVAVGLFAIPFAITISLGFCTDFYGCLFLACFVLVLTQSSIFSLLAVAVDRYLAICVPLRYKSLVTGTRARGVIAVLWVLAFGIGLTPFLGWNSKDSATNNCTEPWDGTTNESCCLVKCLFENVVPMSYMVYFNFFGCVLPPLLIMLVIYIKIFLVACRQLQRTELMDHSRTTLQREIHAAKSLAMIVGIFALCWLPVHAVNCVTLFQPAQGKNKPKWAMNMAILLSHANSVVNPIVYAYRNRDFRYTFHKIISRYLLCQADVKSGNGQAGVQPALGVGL
Briefly: Antagonist activity at recombinant human adenosine A2B receptor expressed in CHOK1 cell membrane assessed as inhibition of NECA-stimulated adenylyl cyclase activity incubated for 20 mins in presence of [alpha32P]ATP. In kind it is functional, cell-based, CHO-K1.

In data set [4] the target is T4, Adenosine receptor A3 (Homo sapiens, UniProt P0DMS8).
T4 sequence (P0DMS8 whole entry): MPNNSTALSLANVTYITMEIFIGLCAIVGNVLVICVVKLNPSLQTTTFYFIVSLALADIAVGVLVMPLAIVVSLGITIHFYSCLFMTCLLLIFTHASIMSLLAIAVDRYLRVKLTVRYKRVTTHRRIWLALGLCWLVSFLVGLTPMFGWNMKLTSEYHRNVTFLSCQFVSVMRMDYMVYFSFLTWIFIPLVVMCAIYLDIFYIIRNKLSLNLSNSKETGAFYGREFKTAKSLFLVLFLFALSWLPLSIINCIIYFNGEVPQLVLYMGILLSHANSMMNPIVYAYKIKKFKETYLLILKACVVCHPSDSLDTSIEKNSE
Briefly: biochemical.
Description: Displacement of [3H]HEMADO from recombinant human adenosine A3 receptor expressed in CHO cell membrane after 3 hrs by microbeta scintillation counting method

Data set [5] has as its target T2, Adenosine receptor A2a. Briefly: Partial agonist activity at recombinant human adenosine A2A receptor expressed in CHOK1 cell membrane assessed as adenylyl cyclase activity at 1 to 100 uM incubated for 20 mins in presence of [alpha32P]ATP relative to NECA. The conditions noted are these: CHO-K1. In kind it is functional, cell-based.
The test system of data set [6] is CHO. Briefly: Selectivity ratio of Ki for recombinant human adenosine A1 receptor expressed in CHO cell membrane to Ki for recombinant human adenosine A2A receptor expressed in CHO cell membrane. In kind it is cell-based.
Data set [7] concerns CHO. Briefly: Selectivity ratio of Ki for recombinant human adenosine A3 receptor expressed in CHO cell membrane to Ki for recombinant human adenosine A2A receptor expressed in CHO cell membrane. In kind it is cell-based.
Data set [8] addresses T2, Adenosine receptor A2a. Briefly: Partial agonist activity at recombinant human adenosine A2A receptor expressed in CHOK1 cell membrane assessed as adenylyl cyclase activity at 100 uM incubated for 20 mins in presence of [alpha32P]ATP relative to NECA. In kind it is functional, cell-based. The settings on record: CHO-K1.
Data set [9] in a line: Thermodynamic equilibrium solubility of compound in water at 1 to 300 ug after overnight incubation by microplate reader analysis. In kind it is physicochemical. The settings on record: read-out: Therm_solubility.

On to `CCN(CC)c1ncnc2sc(Nc3ccc(Cl)cc3)nc12`, for which the Ki in data set [1] was 16.5 µM; in data set [2] it was 11.2 µM; in data set [3] it was over 10 µM; in data set [4], 3.89 µM.

In the case of `COc1cc(Nc2nc3c(N4CCCC4)ncnc3s2)cc(OC)c1OC`, the Ki in data set [1] is over 100 µM; in [2], 0.102 µM; in data set [3], over 10 µM; in data set [4], 1.28 µM. The Efficacy in data set [5] worked out at 10%. Besides, the Ratio Ki in [6] is over 100; in data set [7], 12.

`OC[C@@H]1CCCN1c1ncnc2sc(Nc3c(F)cccc3F)nc12`: the Ki was 7.97 µM in [1], 3.26 µM in data set [2], over 10 µM in [3] and 3.42 µM in data set [4]. Further, the Efficacy in data set [8] amounted to 50%.

As to `CN1CCN(c2ncnc3sc(Nc4ccccc4)nc23)CC1`, the Ki in [1] is over 30 µM; in [2] it was 2.84 µM; in [3] it was over 10 µM; in data set [4] it was 4.31 µM.

With `O=[N+]([O-])c1ccc(Nc2nc3c(N4CCCC4)ncnc3s2)cc1`, the Ki was over 30 µM in [1], 3.18 µM in [2], over 10 µM in [3] and 3.63 µM in data set [4].

`Clc1ccc(Nc2nc3c(N4CCCC4)ncnc3s2)cc1`: the Ki was over 100 µM in data set [1], 2.06 µM in data set [2], over 10 µM in [3] and 4.26 µM in data set [4]. Also, the Efficacy in [5] was determined as 10%.

`Clc1ccc(Nc2nc3c(N4CCCCC4)ncnc3s2)cc1`: the Ki in data set [1] was over 100 µM; in [2], 13.2 µM; in [3], over 10 µM; in [4] it was 18.3 µM.

Take `c1ccc(Nc2nc3c(N4CCCC4)ncnc3s2)cc1`: the Ki is over 30 µM in data set [1], 0.351 µM in [2], over 10 µM in data set [3] and 8.63 µM in data set [4]. Moreover, in data set [5], the Efficacy is 10%.

For the compound `Clc1ncnc2sc(Nc3cccc(Br)c3)nc12`, the Ki in data set [1] is 12.6 µM; in data set [2], 2.96 µM; in [3], over 10 µM; in data set [4], 3.9 µM.

Consider `c1ccc(Nc2nc3c(N4CCNCC4)ncnc3s2)cc1`, for which the Ki in data set [1] was over 30 µM; in data set [2] it was 9.09 µM; in [3], over 10 µM; in data set [4] it was over 10 µM.

Regarding `O=C(Nc1nc2c(Cl)ncnc2s1)c1ccccc1`, the Ki was 7.24 µM in [1], 1.5 µM in [2], over 10 µM in data set [3] and 7.33 µM in data set [4].

Consider `Fc1cccc(F)c1Nc1nc2c(N3CCCC3)ncnc2s1`, for which the Ki in [1] was 2.31 µM; in [2], 2.26 µM; in data set [3], over 10 µM; in data set [4] it was 3.19 µM. Besides, in data set [5], the Efficacy is 10%.

`Cc1ccc(Nc2nc3c(Cl)ncnc3s2)cc1`: the Ki in [1] is over 100 µM; in data set [2], 4.93 µM; in [3], over 10 µM; in data set [4], 4.64 µM.

As for `Clc1ncnc2sc(NCCN3CCOCC3)nc12`, the Ki in [1] is over 100 µM; in data set [2] it was over 100 µM; in data set [3] it was over 10 µM; in data set [4], over 100 µM.

Regarding `c1ccc(Nc2nc3c(N4CCC(N5CCCCC5)CC4)ncnc3s2)cc1`, the Ki in data set [1] was over 100 µM; in data set [2] it was over 100 µM; in data set [3], over 10 µM; in [4], over 100 µM.

`Clc1ccc(Nc2nc3c(N4CCOCC4)ncnc3s2)cc1`: the Ki in [1] was over 100 µM; in data set [2], 1.4 µM; in data set [3], over 10 µM; in data set [4], over 100 µM.

On to `COc1cc(Nc2nc3c(Cl)ncnc3s2)cc(OC)c1OC`, for which the inhibitory constant (Ki) in data set [1] was over 100 µM; in [2], 1.05 µM; in [3] it was over 10 µM; in data set [4] it was 2.65 µM.

For `COc1cc(Nc2nc3c(N4CCC[C@H]4CO)ncnc3s2)cc(OC)c1OC`, the Ki in [1] is 0.974 µM; in data set [2], 0.33 µM; in data set [3], over 10 µM; in data set [4], 1.46 µM. Also, in [8], the Efficacy stood at 50%.

`OC[C@@H]1CCCN1c1ncnc2sc(Nc3ccc(Cl)cc3)nc12`: the Ki in [1] is 0.629 µM; in data set [2] it was 0.466 µM; in data set [3], over 10 µM; in data set [4], 0.934 µM. Besides, in [8], the Efficacy was found to be 50%.

`COc1ccc(Nc2nc3c(Cl)ncnc3s2)cc1`: the Ki in data set [1] was 11.5 µM; in data set [2], 3.57 µM; in [3], over 10 µM; in [4] it was 5.88 µM.

In the case of `Fc1cccc(F)c1Nc1nc2c(Cl)ncnc2s1`, the Ki was 17.8 µM in data set [1], 8.11 µM in data set [2], over 10 µM in data set [3] and 17.2 µM in data set [4].

For `c1ccc(Nc2nc3c(N4CCOCC4)ncnc3s2)cc1`, the Ki in data set [1] is over 100 µM; in data set [2] it was 0.333 µM; in [3], over 10 µM; in data set [4], 4.46 µM. For the same compound, the Ratio Ki in [6] was over 3000; in data set [7] it was 13.

With `COc1ccc(Nc2nc3c(N4CCC[C@H]4CO)ncnc3s2)cc1`, the inhibitory constant (Ki) in [1] was 0.713 µM; in data set [2], 1.11 µM; in data set [3] it was over 10 µM; in data set [4] it was 0.594 µM.

In the case of `CN(C)c1ncnc2sc(Nc3ccccc3)nc12`, the Ki is over 100 µM in [1], 1.27 µM in data set [2], over 10 µM in data set [3] and 1.28 µM in data set [4].

As for `CCN(CC)c1ncnc2sc(Nc3ccccc3)nc12`, the Ki in data set [1] is over 100 µM; in data set [2] it was 2.21 µM; in data set [3] it was over 10 µM; in [4], over 30 µM.

With `CN1CCN(c2ncnc3sc(Nc4ccc(Cl)cc4)nc23)CC1`, the Ki is over 100 µM in [1], over 100 µM in [2], over 10 µM in [3] and over 10 µM in [4].

`S=C(NCc1ccccc1)N(Cc1ccccc1)c1nc2c(Cl)ncnc2s1`: the Ki was over 30 µM in data set [1], 1.87 µM in data set [2] and over 10 µM in data set [3].

`CCN1CCN(c2ncnc3sc(Nc4ccccc4)nc23)CC1`: the Ki in data set [1] was over 100 µM; in [2], 8.39 µM; in data set [3] it was over 10 µM; in data set [4] it was over 30 µM.

Take `CN(C)c1ncnc2sc(Nc3ccc(Cl)cc3)nc12`: the Ki in data set [1] was over 100 µM; in data set [2] it was over 100 µM; in data set [3], over 10 µM; in data set [4], over 10 µM.

In the case of `Brc1cccc(Nc2nc3c(N4CCCC4)ncnc3s2)c1`, the inhibition constant Ki in data set [1] was over 100 µM; in data set [2], 0.245 µM; in data set [3] it was over 10 µM; in data set [4], 1.29 µM. Besides, the Efficacy in [5] turned out to be 10%. In addition, in data set [9], the solubility thermodynamic is over 150 µg/mL.

With `O=[N+]([O-])c1ccc(Nc2nc3c(Cl)ncnc3s2)cc1`, the Ki was over 30 µM in [1], over 30 µM in [2], over 10 µM in data set [3] and 7.95 µM in data set [4].

As for `Cc1ccc(Nc2nc3c(N4CCC[C@H]4CO)ncnc3s2)cc1`, the inhibitory constant (Ki) in [1] is 0.399 µM; in data set [2], 0.313 µM; in [3], over 10 µM; in data set [4] it was 0.843 µM. For the same compound, the Efficacy in data set [8] was 50%.

Turning to `Clc1ncnc2sc(Nc3ccccc3)nc12`, the Ki in data set [1] is over 100 µM; in data set [2], 1.52 µM; in data set [3], over 10 µM; in data set [4], 3.67 µM.

`Clc1ccc(Nc2nc3c(Cl)ncnc3s2)cc1`: the Ki in [1] is 25 µM; in data set [2], 2.69 µM; in data set [3], over 10 µM; in [4], 4.94 µM.

For `c1ccc(Nc2nc3c(N4CCCCC4)ncnc3s2)cc1`, the Ki in data set [1] is over 30 µM; in [2], 0.98 µM; in data set [3] it was over 10 µM; in data set [4], 12.1 µM.

By Ki is commonly meant the equilibrium dissociation constant of an inhibitor or competing ligand from its target.
